Source: PubChem BioAssay (NCI)
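These data come from cells grown in 96-well plates and exposed to compound for 48 hours at five concentrations. GI50: concentration for 50% inhibition of growth. TGI denotes the concentration required for complete inhibition of growth.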

Experiments:
Test in all cases: NCI tumour cell line growth inhibition, 48 h
[1] = test system: HCT-116 colon
[2] = test system: HS 578T breast
[3] = test system: HT29 colon
[4] = test system: MALME-3M melanoma
[5] = test system: NCI-H226 lung
[6] = test system: SF-268 CNS
[7] = test system: SR leukemia
[8] = test system: SW-620 colon
[9] = test system: DMS 273 small cell lung
[10] = test system: M19-MEL melanoma
[11] = test system: SNB-78 CNS

CCCC(=O)O[C@]1(C)CC[C@@H]2[C@H]3[C@@H]1[C@@H]1C[C@@](C)(O)[C@H](OC)CC[C@](C)(OC(=O)[C@@H]2C)[C@H]3O1
GI50 [1]: 36500 nM
TGI [1]: > 100 µM
GI50 [2]: 28.8 µM
TGI [2]: 72.7 µM
GI50 [3]: 26.9 µM
TGI [3]: 69.7 µM
GI50 [4]: 17800 nM
TGI [4]: 33.8 µM
GI50 [5]: 55 µM
TGI [5]: > 100 µM
GI50 [6]: 38.6 µM
TGI [6]: > 100 µM
GI50 [7]: 14900 nM
TGI [7]: 28.1 µM
GI50 [8]: 34.4 µM
TGI [8]: > 100 µM

O=C1C(=O)c2c(nc3ccc(C(F)(F)F)cn23)-c2ccccc21
GI50 [1]: 176 nM
TGI [1]: 0.354 µM
GI50 [2]: 0.206 µM
TGI [2]: 0.523 µM
GI50 [3]: 0.923 µM
TGI [3]: 3.61 µM
GI50 [4]: 158 nM
TGI [4]: 0.295 µM
GI50 [5]: 0.72 µM
TGI [5]: 1.77 µM
GI50 [6]: 0.224 µM
TGI [6]: 0.609 µM
GI50 [7]: 225 nM
TGI [7]: > 100 µM
GI50 [8]: 0.192 µM
TGI [8]: 0.397 µM

Cn1c(I)c(C#C[Si](C)(C)C)c(=O)n(C(=O)c2ccccc2)c1=O
GI50 [1]: 1740 nM
TGI [1]: 3.44 µM
GI50 [2]: 7.12 µM
TGI [2]: 23.6 µM
GI50 [3]: 3.32 µM
TGI [3]: 15.8 µM
GI50 [4]: 2720 nM
TGI [4]: 6.63 µM
GI50 [5]: 7.44 µM
TGI [5]: 21.7 µM
GI50 [6]: 3.22 µM
TGI [6]: 10.2 µM
GI50 [7]: 1890 nM
GI50 [8]: 2.01 µM
TGI [8]: 4.27 µM

O=c1[nH]ccc(CNC23CC4CC(CC(C4)C2)C3)c1O
TGI [9]: > 100 µM
TGI [1]: > 100 µM
TGI [3]: > 100 µM
TGI [10]: > 100 µM
TGI [4]: > 100 µM
TGI [5]: > 100 µM
TGI [11]: > 100 µM
TGI [7]: > 100 µM
TGI [8]: > 100 µM

CN1CCN(C2=NC(=O)/C(=C\c3ccc(N(C)C)cc3)S2)CC1
GI50 [1]: > 100000 nM
TGI [1]: > 100 µM
GI50 [2]: > 100 µM
TGI [2]: > 100 µM
GI50 [3]: 39.5 µM
TGI [3]: > 100 µM
GI50 [4]: > 100000 nM
TGI [4]: > 100 µM
GI50 [5]: > 100 µM
TGI [5]: > 100 µM
GI50 [6]: > 100 µM
TGI [6]: > 100 µM
GI50 [7]: 57400 nM
TGI [7]: > 100 µM
GI50 [8]: > 100 µM
TGI [8]: > 100 µM

CC(C)(C)C#COC(=O)c1ccccc1
TGI [1]: > 100 µM
TGI [3]: > 100 µM
TGI [10]: > 100 µM
TGI [4]: > 100 µM
TGI [5]: > 100 µM
TGI [6]: > 100 µM
TGI [11]: > 100 µM
TGI [7]: > 100 µM
TGI [8]: > 100 µM

CCCCNC(c1ccc(Cl)cc1)C(O)c1ccc(Cl)cc1 (centres undefined)
GI50 [1]: 938 nM
TGI [1]: 2.27 µM
GI50 [2]: 4.98 µM
TGI [2]: 26.9 µM
GI50 [3]: 0.792 µM
TGI [3]: 2.74 µM
GI50 [4]: 1520 nM
TGI [4]: 3.08 µM
GI50 [5]: 6.58 µM
TGI [5]: 25.1 µM
GI50 [6]: 3.21 µM
TGI [6]: 16.3 µM
GI50 [7]: 1070 nM
TGI [7]: 3.75 µM
GI50 [8]: 1.78 µM
TGI [8]: 3.93 µM

Cc1ccc(/C(=N/Nc2ccc([N+](=O)[O-])cc2)Sc2cc(Cl)c(C)cc2S(N)(=O)=O)cc1
GI50 [1]: 1130 nM
TGI [1]: 2.34 µM
GI50 [2]: 2.45 µM
TGI [2]: > 23.5 µM
GI50 [3]: 1.31 µM
TGI [3]: 3.12 µM
GI50 [4]: 1910 nM
TGI [4]: 4.58 µM
GI50 [5]: 1.64 µM
TGI [5]: 3.57 µM
GI50 [6]: 1.91 µM
TGI [6]: 7.37 µM
GI50 [7]: 945 nM
TGI [7]: 3.55 µM
GI50 [8]: 2.55 µM
TGI [8]: 10.5 µM

Cc1cc(=O)[nH]c(NNC(C#N)c2cccc([N+](=O)[O-])c2)n1 (centres undefined)
TGI [9]: > 100 µM
TGI [1]: > 100 µM
TGI [3]: > 100 µM
TGI [10]: > 100 µM
TGI [4]: > 100 µM
TGI [5]: > 100 µM
TGI [6]: > 100 µM
TGI [11]: > 100 µM
TGI [7]: > 100 µM
TGI [8]: > 100 µM

Cc1cc(Cl)ccc1NC(=O)CCCC(=O)C1C/C(=N/O)CC/C1=N\O (centres undefined)
TGI [9]: > 100 µM
TGI [1]: > 100 µM
TGI [3]: > 100 µM
TGI [10]: > 100 µM
TGI [4]: > 100 µM
TGI [5]: > 100 µM
TGI [6]: > 100 µM
TGI [11]: > 100 µM
TGI [8]: > 100 µM

Cc1cccc(C)c1NC(=O)C(=O)Cc1nc2ccccc2s1
TGI [9]: > 100 µM
TGI [1]: > 100 µM
TGI [3]: > 100 µM
TGI [10]: > 100 µM
TGI [4]: > 100 µM
TGI [5]: > 100 µM
TGI [6]: > 100 µM
TGI [11]: > 100 µM
TGI [8]: > 100 µM

OCc1ccc(N(Cc2ccc(F)cc2)Cc2ccc(F)cc2)cc1Cl
GI50 [1]: 2870 nM
TGI [1]: 10.8 µM
GI50 [2]: 16.2 µM
TGI [2]: 45.5 µM
GI50 [3]: 9.66 µM
TGI [3]: 23.3 µM
GI50 [4]: 18400 nM
TGI [4]: 35.4 µM
GI50 [5]: 0.466 µM
TGI [5]: 2.03 µM
GI50 [6]: 12.4 µM
TGI [6]: 26.9 µM
GI50 [7]: 5510 nM
TGI [7]: 24.4 µM
GI50 [8]: 6.21 µM
TGI [8]: 20.7 µM

CC(=O)[CH-]C(C)=O.CC(=O)[CH-]C(C)=O.[O-]c1ccccc1.[O-]c1ccccc1.[Ti+4]
GI50 [9]: > 100 µM
TGI [9]: > 100 µM
GI50 [1]: > 100000 nM
TGI [1]: > 100 µM
GI50 [3]: > 100 µM
TGI [3]: > 100 µM
GI50 [4]: > 100000 nM
TGI [4]: > 100 µM
GI50 [5]: > 100 µM
TGI [5]: > 100 µM
GI50 [6]: > 100 µM
TGI [6]: > 100 µM
GI50 [7]: > 100000 nM
TGI [7]: > 100 µM
GI50 [8]: > 100 µM
TGI [8]: > 100 µM

CC(C)(C)C[C@H]1N[C@@H](C(=O)NC2CCC(O)CC2)[C@H](c2cccc(Cl)c2F)[C@@]12C(=O)Nc1cc(Cl)ccc12 (some centres undefined)
GI50 [1]: 410 nM
TGI [1]: 11.9 µM
GI50 [2]: 6.51 µM
TGI [2]: 56.8 µM
GI50 [3]: 4.34 µM
TGI [3]: 19.9 µM
GI50 [4]: 131 nM
TGI [4]: 3.98 µM
GI50 [5]: 0.238 µM
TGI [5]: 1.04 µM
GI50 [6]: 12 µM
TGI [6]: 25.8 µM
GI50 [7]: 189 nM
TGI [7]: 5.45 µM
GI50 [8]: 12.3 µM
TGI [8]: 29.4 µM

O=c1c(Cc2ccccc2)c(O)cc2n1CCC2
TGI [1]: > 100 µM
TGI [3]: > 100 µM
TGI [10]: > 100 µM
TGI [4]: > 100 µM
TGI [5]: > 100 µM
TGI [6]: > 100 µM
TGI [11]: > 100 µM
TGI [7]: > 100 µM
TGI [8]: > 100 µM

Cc1nnc2n1N=C(c1ccccc1)C(c1ccccc1)S2 (centres undefined)
TGI [9]: > 100 µM
TGI [1]: > 100 µM
TGI [3]: > 100 µM
TGI [10]: > 100 µM
TGI [4]: > 100 µM
TGI [6]: > 100 µM
TGI [11]: > 100 µM
TGI [8]: 26.8 µM

CCOc1c(Br)cc(Br)cc1C=C(C#N)C#N
TGI [1]: > 10 µM
TGI [2]: > 10 µM
TGI [3]: > 10 µM
TGI [4]: > 10 µM
TGI [5]: > 10 µM
TGI [6]: > 10 µM
TGI [7]: > 10 µM
TGI [8]: > 10 µM
